Results reported in ChEMBL document CHEMBL1155015, “Synthesis and cytotoxic activities of usnic acid derivatives” (Bioorg Med Chem, 2008).
pIC50: −log10 of the molar value.

Key:
L1210 [1] = test: Cytotoxicity against mouse L1210 ATCC CCL 219 cells after 48 hrs by MTT assay; assay type: functional, cell-based; settings: L1210, 48 h
CHO [2] = test: Cytotoxicity against CHO cells after 48 hrs by MTT assay; assay type: cell-based; settings: Cricetulus griseus
MCF7 = test: Cytotoxicity against human MCF7 ATCC HTB 22 cells after 72 hrs by MTT assay; assay type: functional, cell-based; settings: MCF7, 72 h
K562 = test: Cytotoxicity against human K562 ATCC CCL 243 cells after 72 hrs by MTT assay; assay type: functional, cell-based; settings: K562, 72 h
U-251 = test: Cytotoxicity against human U251 RCB 0641 cells after 72 hrs by MTT assay; assay type: functional, cell-based; settings: U-251, 72 h
CHO [3] = test: Cytotoxicity against polyamine transport-deficient mutant CHO cells after 48 hrs by MTT assay; assay type: ADME, cell-based; settings: Cricetulus griseus
[4] = Cytotoxicity against mouse 3LL CRL 1642 cells after 48 hrs by MTT assay; assay type: functional, cell-based
DU-145 = test: Cytotoxicity against human DU145 ATCC HTB 81 cells after 72 hrs by MTT assay; assay type: functional, cell-based; settings: DU-145, 72 h
L1210 [5] = test: Induction of apoptosis in mouse L1210 ATCC CCL 219 cells assessed as fragmented cell nuclei at 3 uM after 24 hrs by Hoechst 33342 staining; assay type: functional
L1210 [6] = test: Induction of apoptosis in mouse L1210 ATCC CCL 219 cells assessed as fragmented cell nuclei at 3 uM after 48 hrs by Hoechst 33342 staining; assay type: functional
L1210 [7] = test: Induction of apoptosis in mouse L1210 ATCC CCL 219 cells assessed as fragmented cell nuclei at 4.5 uM after 24 hrs by Hoechst 33342 staining; assay type: functional
L1210 [8] = test: Induction of apoptosis in mouse L1210 ATCC CCL 219 cells assessed as fragmented cell nuclei at 4.5 uM after 48 hrs by Hoechst 33342 staining; assay type: functional
L1210 [9] = test: Induction of apoptosis in mouse L1210 ATCC CCL 219 cells assessed as fragmented cell nuclei at 6 uM after 24 hrs by Hoechst 33342 staining; assay type: functional
L1210 [10] = test: Induction of apoptosis in mouse L1210 ATCC CCL 219 cells assessed as fragmented cell nuclei at 6 uM after 48 hrs by Hoechst 33342 staining; assay type: functional
L1210 [11] = test: Induction of apoptosis in mouse L1210 ATCC CCL 219 cells assessed as increase in caspase 3 activity at 3 uM after 48 hrs relative to control; assay type: functional
L1210 [12] = test: Induction of apoptosis in mouse L1210 ATCC CCL 219 cells assessed as increase in caspase 3 activity at 4.5 uM after 48 hrs relative to control; assay type: functional
L1210 [13] = test: Induction of apoptosis in mouse L1210 ATCC CCL 219 cells assessed as increase in caspase 3 activity at 6 uM after 48 hrs relative to control; assay type: functional
L1210 [14] = test: Induction of apoptosis in mouse L1210 ATCC CCL 219 cells assessed as fragmented cell nuclei at 17 uM after 24 hrs by Hoechst 33342 staining; assay type: functional
L1210 [15] = test: Induction of apoptosis in mouse L1210 ATCC CCL 219 cells assessed as fragmented cell nuclei at 17 uM after 48 hrs by Hoechst 33342 staining; assay type: functional
L1210 [16] = test: Induction of apoptosis in mouse L1210 ATCC CCL 219 cells assessed as fragmented cell nuclei at 26 uM after 24 hrs by Hoechst 33342 staining; assay type: functional
L1210 [17] = test: Induction of apoptosis in mouse L1210 ATCC CCL 219 cells assessed as fragmented cell nuclei at 26 uM after 48 hrs by Hoechst 33342 staining; assay type: functional
L1210 [18] = test: Induction of apoptosis in mouse L1210 ATCC CCL 219 cells assessed as fragmented cell nuclei at 35 uM after 24 hrs by Hoechst 33342 staining; assay type: functional
L1210 [19] = test: Induction of apoptosis in mouse L1210 ATCC CCL 219 cells assessed as fragmented cell nuclei at 35 uM after 48 hrs by Hoechst 33342 staining; assay type: functional
L1210 [20] = test: Induction of apoptosis in mouse L1210 ATCC CCL 219 cells assessed as increase in caspase 3 activity at 17 uM after 48 hrs relative to control; assay type: functional
L1210 [21] = test: Induction of apoptosis in mouse L1210 ATCC CCL 219 cells assessed as increase in caspase 3 activity at 26 uM after 48 hrs relative to control; assay type: functional
L1210 [22] = test: Induction of apoptosis in mouse L1210 ATCC CCL 219 cells assessed as increase in caspase 3 activity at 35 uM after 48 hrs relative to control; assay type: functional
L1210 [23] = test: Induction of apoptosis in mouse L1210 ATCC CCL 219 cells assessed as fragmented cell nuclei at 1.7 uM after 24 hrs by Hoechst 33342 staining; assay type: functional
L1210 [24] = test: Induction of apoptosis in mouse L1210 ATCC CCL 219 cells assessed as fragmented cell nuclei at 1.7 uM after 48 hrs by Hoechst 33342 staining; assay type: functional
L1210 [25] = test: Induction of apoptosis in mouse L1210 ATCC CCL 219 cells assessed as increase in caspase 3 activity at 1.7 uM after 48 hrs relative to control; assay type: functional

Structure (SMILES)	pIC50 (L1210 [1])	pIC50 (CHO [2])	pIC50 (MCF7)	pIC50 (K562)	pIC50 (U-251)	pIC50 (CHO [3])	further results
NCCCCCCCCN	< 4.00	< 4.00					
CCOC(=O)[C@H](CC(C)C)N/C(C)=C1\C(=O)C=C2Oc3c(C(C)=O)c(O)c(C)c(O)c3[C@@]2(C)C1=O	4.31		< 4.00	4.22	< 4.00		
CCOC(=O)[C@H](Cc1ccccc1)N/C(C)=C1\C(=O)C=C2Oc3c(C(C)=O)c(O)c(C)c(O)c3[C@@]2(C)C1=O	4.13		< 4.00	< 4.00	< 4.00		
CC(=O)c1c(O)c(C)c(O)c2c1OC1=CC(=O)/C(=C(/C)NCCCCN)C(=O)[C@@]12C	4.92	4.97				4.92	
CC(=O)c1c(O)c(C)c(O)c2c1OC1=CC(=O)/C(=C(/C)NCCCNCCCCNCCCN)C(=O)[C@@]12C	4.82	4.32	4.95		5.36	4.23	
CC(=O)c1c(O)c(C)c(O)c2c1OC1=CC(=O)/C(=C(/C)NCCCCO)C(=O)[C@@]12C	4.70	4.71					
CC(=O)c1c(O)c(C)c(O)c2c1OC1=CC(=O)/C(=C(/C)NCCCNCCCCN)C(=O)[C@@]12C	5.08	4.53	5.00		4.90	4.55	
CC[C@H](C)[C@H](N/C(C)=C1\C(=O)C=C2Oc3c(C(C)=O)c(O)c(C)c(O)c3[C@@]2(C)C1=O)C(=O)O	4.76		< 4.00	4.25			
CCCCCCCCCN/C(C)=C1\C(=O)C=C2Oc3c(C(C)=O)c(O)c(C)c(O)c3[C@@]2(C)C1=O	< 3.30						
CC(=O)c1c(O)c(C)c(O)c2c1OC1=CC(=O)/C(=C(/C)NCCCCCCCCN)C(=O)[C@@]12C	5.57	5.46	5.24	5.14	5.09	5.30	pIC50 [4]: 5.09; pIC50 (DU-145): 4.85; Activity (L1210 [5]): 37%; Activity (L1210 [6]): 37%; Activity (L1210 [7]): 38%; Activity (L1210 [8]): 42%; Activity (L1210 [9]): 35%; Activity (L1210 [10]): 48%; Activity (L1210 [11]): 1.4; Activity (L1210 [12]): 1.7; Activity (L1210 [13]): 1.7
CC(=O)C1=C(O)C=C2Oc3c(C(C)=O)c(O)c(C)c(O)c3C2(C)C1=O (single isomer, unassigned) [(-)-USNIC ACID]	4.76		4.29	4.66	4.71		pIC50 [4]: 4.45; pIC50 (DU-145): 4.34
CC(=O)C1=C(O)C=C2Oc3c(C(C)=O)c(O)c(C)c(O)c3[C@@]2(C)C1=O [(+)-USNIC ACID]	4.58	4.50	3.98	4.28	4.71	4.52	pIC50 [4]: 4.64; pIC50 (DU-145): 4.24; Activity (L1210 [14]): 30%; Activity (L1210 [15]): 33%; Activity (L1210 [16]): 32%; Activity (L1210 [17]): 38%; Activity (L1210 [18]): 35%; Activity (L1210 [19]): 42%; Activity (L1210 [20]): 3.4; Activity (L1210 [21]): 7.4; Activity (L1210 [22]): 21.9
COc1cc([C@@H]2c3cc4c(cc3[C@@H](O[C@@H]3O[C@@H]5CO[C@@H](C)O[C@H]5[C@H](O)[C@H]3O)[C@H]3COC(=O)[C@H]23)OCO4)cc(OC)c1O [ETOPOSIDE]	6.30			5.31	6.30		pIC50 [4]: 5.40; pIC50 (DU-145): 5.82; Activity (L1210 [23]): 47%; Activity (L1210 [24]): 53%; Activity (L1210 [25]): 19.5
NCCCCN [PUTRESCINE]	< 4.00	< 4.00				< 4.00	
NCCCCNCCCN [SPERMIDINE]	< 4.00	< 4.00				< 4.00	
NCCCNCCCCNCCCN [SPERMINE]	4.26	< 4.00				< 4.00	
